This is an account of results in US9517988B2 (Sichuan Haisco Pharmaceutical Co., Ltd., priority 2013, dated 2016).

Molecules are shown by their SMILES. Structures can show the parent of a compound that is named as a salt.

A short description of data set [1]: Righting reflex experiment on mice. The following applies: both, ICR, mouse, in vivo; for LD50: iv. The protocol:
(§1) LD5 (5% lethal dose): dose required to cause 5% of mice to die in a test.
(§2) If a normal animal was able to immediately turn its body to normal upright position after being pushed over or made lying on its back, such a reflex was determined as the righting reflex. Otherwise, loss of the righting reflex and the time of loss were recorded, and a reflex recovery time was recorded when the animal restored the righting reflex. The period from finishing of drug administration until loss of the righting reflex was recorded as the anesthesia induction time, and the period from loss of the righting reflex until recovery of the righting reflex was recorded as the anesthesia maintenance time.
(§3) TI (therapeutic index, i.e. LD50/ED50), SI (safety index, i.e. LD5/ED95).
(§4) MTD (maximum tolerated dose): the maximum dose able to cause 100% to loss the righting index without death.
(§5) Indicators such as median effective dose (ED50), median lethal dose (LD50), therapeutic index (TI, i.e. LD50/ED50), safety index (SI, i.e. LD5/ED95), anesthesia induction time, anesthesia maintenance time, and maximum tolerated dose (MTD) were used to evaluate the effect and safety of anesthesia. […] After adapting to the laboratory environment, laboratory animals were fasted for 12 hours. On the next day, administration was carried out at 10 mg/kg body weight. Upon intravenous injection, the time of loss of the righting reflex was recorded. The period from finishing of drug administration until loss of the righting reflex was recorded as the anesthesia induction time, and the period from loss of the righting reflex until recovery of the righting reflex was recorded as the anesthesia maintenance time. The anesthesia induction time and the anesthesia maintenance time were used to indicate how strong an anesthetic effect was. Meanwhile, the dose required to cause a 7-min anesthesia (HD7) was measured and used to evaluate relative efficacy.

Data set [2] relates to ICR mice. Kind of data set: Righting reflex experiment on mice. The conditions noted are these: for ED50: Mus musculus, iv; for Anesthesia induction time / Anesthesia maintenance time: intravenous injection; for Anesthesia induction time: end of administration until loss of righting reflex; for Anesthesia maintenance time: loss until recovery of righting reflex; for SI: safety index, LD5/ED95, mice; for TI: therapeutic index, LD50/ED50, mice; for MTD: maximum dose causing 100% loss of righting reflex without death. The protocol:
as §1, §2, §3, §4, §5

A short description of data set [3]: Righting reflex experiment on mice with prodrugs. Format: in vivo. The following applies: ICR, mouse, in vivo, mice; for MTD: prodrugs; for LD50: intravenous injection, prodrugs in physiological saline. The protocol:
(§6) After adapting to the laboratory environment, the SPF-grade ICR mice were fasted for 12 hours.

Data set [4] deals with ICR mice. Kind of data set: Righting reflex experiment on mice with prodrugs. Format: in vivo. The following applies: for ED50: Mus musculus; for SI: safety index, LD5/ED95, mice; for TI: therapeutic index, LD50/ED50, mice. The protocol: as §6
Setting [5] is: mice, intravenous injection, prodrugs formulated with physiological saline, read-out: ED50.
Where [6] appears, read: mice, intravenous injection, prodrugs.

One may read the LD50 as the dose expected to kill half of the subjects tested. For orientation: ED50 means the midpoint of the dose-response relation. In data set [1] (intravenous), `C[C@@H](c1cccc([C@H](C)C2CC2)c1O)C1CC1` [Compound 18, 2,6-bis[(1R)-1-cyclopropylethyl]phenol] returned an MTD of 20 mg/kg. The compound further registered an LD50 in data set [1] of 43.6 mg/kg. In the data set on ICR mice [2], this compound had an ED50 of 5.8 mg/kg, an SI of 3.5 and a TI of 7.5. In the data set with ICR mice [2] (mice), the Anesthesia induction time was <15.0 s and the Anesthesia maintenance time is 1031.6 s. The compound further displayed an HD7 in the data set with ICR mice [2] (mice, dose required to cause a 7-min anesthesia) of 2.5 mg/kg.
For `CC(C)c1cccc([C@H](C)C2CC2)c1OCOC(=O)c1cccnc1` [Compound 51, [2-[(1R)-1-cyclopropylethyl]-6-isopropyl-phenoxy]methylpyridine-3-carboxylate], the MTD in data set [3] (both sexes, intravenous) was 40 mg/kg. Further, the LD50 in data set [3] (both sexes) is 80 mg/kg. Also, the ED50 in the data set on ICR mice [4] (setting [5]) was determined as 28.3 mg/kg. Moreover, in the data set with ICR mice [4] (setting [6]), the Anesthesia induction time was found to be 159.0 s and the Anesthesia maintenance time was determined as 1159.9 s. In the data set with ICR mice [4] (prodrugs), the SI is 1.2 and the TI is 2.8.
Turning to `CC(C)c1cccc([C@H](C)C2CCC2)c1OCOP(=O)([O-])[O-].[Na+].[Na+]` [Compound 74], in data set [3] (both, intravenous), the MTD amounted to 120 mg/kg. In addition, in data set [3] (both), the LD50 came out at 192 mg/kg. In addition, the ED50 in the data set on ICR mice [4] (setting [5]) is 48.3 mg/kg. Further, in the data set with ICR mice [4] (setting [6]), the Anesthesia induction time came out at 96.5 s and the Anesthesia maintenance time turned out to be 2378.3 s. In the data set on ICR mice [4] (prodrugs), the SI worked out at 2.5 and the TI is 4.0.
As for `CC(C)c1cccc([C@H](C)C2CC2)c1OCOC(=O)C(NC(=O)OC(C)(C)C)C(C)C` (stereo in doubt) [Compound 57, [2-[(1R)-1-cyclopropylethyl]-6-isopropyl-phenoxy]methyl(2R)-2-(tertbutoxycarbonylamino)-3-methyl-butanoate], in data set [3] (both sexes, intravenous), the MTD came to 80 mg/kg. For the same compound, the LD50 in data set [3] (both sexes) was 120 mg/kg. In the data set on ICR mice [4] (setting [5]), the ED50 was 36.7 mg/kg. In addition, in the data set with ICR mice [4] (setting [6]), the Anesthesia induction time amounted to 135.8 s and the Anesthesia maintenance time stood at 1931.2 s. In the data set on ICR mice [4] (prodrugs), the SI was found to be 1.3 and the TI is given as 3.3.
On to `CC(C)c1cccc([C@H](C)C2CC2)c1OCOC(=O)[C@@H](N)Cc1ccccc1` [Compound 62, [2-[(1R)-1-cyclopropylethyl]-6-isopropyl-phenoxy]methyl(2S)-2-amino-3-phenylpropanoate trifluoroacetate], for which the MTD in data set [3] (both sexes, intravenous) was 30 mg/kg. Moreover, in data set [3] (both sexes), the LD50 was 45.6 mg/kg. Further, the ED50 in the data set on ICR mice [4] (setting [5]) is 7.7 mg/kg. In addition, in the data set with ICR mice [4] (setting [6]), the Anesthesia induction time is recorded as <15.0 s and the Anesthesia maintenance time stood at 696.9 s. In addition, in the data set on ICR mice [4] (mice, prodrugs), the “ED50 and efficacy compared with propofol” value was “smaller ED50 value and higher efficacy than propofol”. In the data set with ICR mice [4] (prodrugs), the SI was found to be 1.6 and the TI is 5.9.
Turning to `C[C@H](c1cccc([C@@H](C)C2CC2)c1O)C1CC1` [Compound 20, 2,6-bis[(1S)-1-cyclopropylethyl]phenol], the LD50 in data set [1] stood at 150 mg/kg. In the data set with ICR mice [2], the ED50 stood at 15.7 mg/kg, the SI came out at 4.4 and the TI was 9.6. In the data set with ICR mice [2] (mice), the Anesthesia induction time is <15.0 s, the Anesthesia maintenance time is 1207.7 s and the MTD is reported as 90.0 mg/kg.
As to `CC(C)c1cccc(C(C)C2CCC2)c1O` (centres unmarked) [Compound 7, 2-(1-cyclobutylethyl)-6-isopropylphenol], the LD50 in data set [1] stood at 40 mg/kg. In the data set with ICR mice [2], this compound registered an ED50 of 7.1 mg/kg, an SI of 2.7 and a TI of 5.7. Also, in the data set on ICR mice [2] (mice), the Anesthesia induction time is <15.0 s, the Anesthesia maintenance time was 958.0 s and the MTD was 30.0 mg/kg.
In the case of `CC(=O)Oc1ccccc1C(=O)OCOc1c(C(C)C)cccc1[C@H](C)C1CC1` [Compound 38, [2-[(1R)-1-cyclopropylethyl]-6-isopropyl-phenoxy]methyl 2-acetoxybenzoate], in data set [3] (both sexes, intravenous), the MTD was determined as 50 mg/kg. For the same compound, in data set [3] (both sexes), the median lethal dose (LD50) worked out at 80 mg/kg. Besides, the ED50 with ICR mice [4] (setting [5]) came out at 26.1 mg/kg. Also, in the data set with ICR mice [4] (setting [6]), the Anesthesia induction time amounted to 141.0 s and the Anesthesia maintenance time was found to be 478.9 s. In addition, in the data set on ICR mice [4] (prodrugs), the SI is 1.3 and the TI is 3.1.
For `CC(C)c1cccc([C@@H](C)C2CC2)c1OCOP(=O)([O-])[O-].[Na+].[Na+]` [Compound 65], the MTD in data set [3] (both sexes, intravenous) amounted to 200 mg/kg. In addition, the LD50 in data set [3] (both sexes) was 370 mg/kg. In the data set on ICR mice [4] (setting [5]), the 50% effective dose (ED50) is 82.7 mg/kg. Also, in the data set with ICR mice [4] (setting [6]), the Anesthesia induction time amounted to 82.5 s and the Anesthesia maintenance time stood at 3278.0 s. In the data set on ICR mice [4] (prodrugs), the SI was 2.9 and the TI is 4.5.
Consider `C[C@@H](c1cccc([C@H](C)C2CC2)c1OCOP(=O)(O)O)C1CC1` [Compound 75, sodium (2,6-bis((R)-1-cyclopropylethyl)phenoxy)methyl phosphate], for which the MTD in data set [3] (both sexes, intravenous) is 30 mg/kg. Further, in data set [3] (both sexes), the LD50 came out at 42.4 mg/kg. Besides, the ED50 with ICR mice [4] (setting [5]) is 11.7 mg/kg. For the same compound, in the data set with ICR mice [4] (setting [6]), the Anesthesia induction time is on record as 129.2 s and the Anesthesia maintenance time stood at 2070.4 s. Also, in the data set on ICR mice [4] (prodrugs), the SI came to 2.3 and the TI amounted to 3.6.
Consider `CC[C@@H](C)c1cccc([C@H](C)C2CC2)c1OCOP(=O)([O-])[O-].[Na+].[Na+]` [Compound 78], for which the MTD in data set [3] (both, intravenous) stood at 40 mg/kg. The LD50 in data set [3] (both) is 63.7 mg/kg. In the data set with ICR mice [4] (setting [5]), the ED50 was 15.9 mg/kg. For the same compound, in the data set on ICR mice [4] (setting [6]), the Anesthesia induction time was 65.2 s and the Anesthesia maintenance time is reported as 2634.6 s. Further, in the data set on ICR mice [4] (prodrugs), the SI was 2.9 and the TI was 4.0.
With `CC(C)c1cccc([C@H](C)C2CC2)c1OCOP(=O)(OCOC(=O)C(C)(C)C)OCOC(=O)C(C)(C)C` [Compound 35, [[2-[(1R)-1-cyclopropylethyl]-6-isopropyl-phenoxy]methoxy-(2,2-dimethylpropanoyloxymethoxy)phosphoryl]oxymethyl 2,2-dimethylpropanoate], in data set [3] (both sexes), the LD50 turned out to be 200 mg/kg and the MTD was found to be 200 mg/kg. Besides, the ED50 in the data set on ICR mice [4] (iv) came to 39.3 mg/kg. In the data set on ICR mice [4] (setting [6]), the Anesthesia induction time was <15.0 s and the Anesthesia maintenance time is on record as 1915.5 s. Moreover, in the data set with ICR mice [4] (prodrugs), the SI worked out at 4.9 and the TI stood at 5.1.
Regarding `CC[C@H](C)c1cccc([C@H](C)C2CC2)c1OCOP(=O)([O-])[O-].[Na+].[Na+]` [Compound 79], the MTD in data set [3] (both, intravenous) is 60 mg/kg. In addition, the LD50 in data set [3] (both) came to 91.8 mg/kg. Moreover, the ED50 in the data set on ICR mice [4] (setting [5]) is 24.3 mg/kg. Besides, in the data set on ICR mice [4] (setting [6]), the Anesthesia induction time is recorded as 72.5 s and the Anesthesia maintenance time was 2252.1 s. In the data set on ICR mice [4] (prodrugs), the SI turned out to be 2.1 and the TI turned out to be 3.8.
`CC(C)c1cccc([C@H](C)C2CC2)c1OCOP(=O)([O-])[O-].[K+].[K+]` [Compound 45]: the MTD in data set [3] (both, intravenous) worked out at 50 mg/kg. For the same compound, in data set [3] (both), the median lethal dose (LD50) is 72.6 mg/kg.
`C[C@H](c1cccc([C@H](C)C2CC2)c1OCOP(=O)(O)O)C1CC1` [Compound 76, sodium (2-((R)-1-cyclopropylethyl)-6-((S)-1-cyclopropylethyl)phenoxy)methyl phosphate]: the MTD in data set [3] (both sexes, intravenous) was determined as 80 mg/kg. Also, the LD50 in data set [3] (both sexes) was found to be 143 mg/kg. Also, the 50% effective dose (ED50) in the data set on ICR mice [4] (setting [5]) was 35.8 mg/kg. Also, in the data set with ICR mice [4] (setting [6]), the Anesthesia induction time is listed as 111.8 s and the Anesthesia maintenance time is listed as 1992.8 s. In the data set on ICR mice [4] (prodrugs), the SI worked out at 2.5 and the TI was 4.0.
As to `C[C@H](c1cccc([C@@H](C)C2CC2)c1OCOP(=O)(O)O)C1CC1` [Compound 77, sodium (2,6-bis((S)-1-cyclopropylethyl)phenoxy)methyl phosphate], the MTD in data set [3] (both sexes, intravenous) came to 160 mg/kg. Further, the LD50 in data set [3] (both sexes) is 274 mg/kg. In addition, the ED50 in the data set on ICR mice [4] (setting [5]) was 94.7 mg/kg. In the data set with ICR mice [4] (setting [6]), the Anesthesia induction time turned out to be 175.4 s and the Anesthesia maintenance time came to 1859.1 s. In addition, in the data set on ICR mice [4] (prodrugs), the SI turned out to be 1.7 and the TI is reported as 2.9.
On to `CC(C)C[C@H](N)C(=O)OCOc1c(C(C)C)cccc1[C@H](C)C1CC1` [Compound 60, [2-[(1R)-1-cyclopropylethyl]-6-isopropyl-phenoxy]methyl(2S)-2-amino-4-methyl-pentanoate trifluoroacetate], for which the MTD in data set [3] (both sexes, intravenous) stood at 50 mg/kg. For the same compound, the LD50 in data set [3] (both sexes) was 79.6 mg/kg. Also, in the data set with ICR mice [4] (setting [5]), the ED50 was 13.8 mg/kg. Also, in the data set with ICR mice [4] (setting [6]), the Anesthesia induction time came to 6.0 s and the Anesthesia maintenance time came to 1473.0 s. Moreover, in the data set on ICR mice [4] (prodrugs), the SI came out at 3.1 and the TI was determined as 5.8.
